Measured values taken from US7326721B2 (Hypnion, Inc., priority 2003, dated 2008).
“And” between values parts separate entries of the source, which are not always exact repeats. Equal values may be shown once.

Key:
[1] = tested on: Wistar rats; assay: Acetic acid-induced abdominal spasm test in the rat; type: in vivo
Description: The objective of this example was to determine the analgesic activity of HY-2901 (Also referred to herein as Compound 49a) following oral administration. Analgesic activity was assessed abdominal spasm test in the rat and mouse. Analgesic activity is also assessed using the tail clip test in the mouse, tail flick test in the rat, Randall-Selitto test in the rat and comparisons are made with a vehicle control group. Reference compounds ASA (acetylsalicylic acid) and morphine are also included for comparison.
The tail clip and tail flick test provide useful information about the central analgesic activity of the test article. The Randall-Selitto test provides information on the compound's ability to modify a hyperalgesic state and the abdominal spasm test provides information on the peripheral analgesic activity of the test article. The test article is administered by oral gavage, this being the intended clinical route of administration. The dose levels employed are expected to encompass the efficacy dose and provide an adequate safety margin.
All formulations were prepared on each day of dosing. The test article (HY-2901) was formulated in 0.25% (w/v) MC at the highest concentration required. Lower doses were obtained by serial dilution of the highest concentration using 0.25% (w/v) MC. The reference compound, acetylsalicylic acid, was formulated in 0.25% (w/v) MC at the required concentrations. Brewer's yeast was formulated in water for injection at the required concentration. Acetic acid was diluted with water for injection to provide the required concentration for administration.
An adequate number of male Crl:CD-I(ICR)BR mice and Wistar rats were obtained from Charles River (UK) Ltd., Margate, Kent. The mice were approximately 4 weeks of age and weigh between 18 and 22 g on arrival. The rats were approximately 5 weeks of age and weigh between 150 and 170 g on arrival. The age and weight of the animals at the start of the study was documented in the raw data and final report,
Each animal received a single administration of vehicle, test article or reference compound by oral gavage, using a constant dose volume […]. Individual dose volumes were based on individual body weights obtained on the day of dosing.
Forty-five minutes following oral administration each animal received a 1 mL intraperitoneal injection of 1% acetic acid. Animals were immediately placed into individual observation chambers and the number of abdominal spasms elicited over the subsequent 25-minute period was recorded.

[2] = Plasma pharmacokinetics in rats; type: in vivo, rat
Text: (§1) The following pharmacokinetic parameters are computed from the individual plasma concentrations of the modified antihistamine compound using a noncompartmental approach and appropriate validated pharmacokinetic software (e.g., WinNonlin Professional). Concentration values reported as BLQ are set to zero. If concentration data are available, interim calculations are done (non-QC.d data) between periods if possible.
Dose proportionality following study medication is explored by analyzing natural log-transformed pharmacokinetic variables AUC(0-t), AUC(0-inf), and Cmax with a linear model including the natural log-transformed dose as covariates. Dose proportionality is concluded if the 95% confidence interval for the slope of the covariate includes the value of 1. Dose linearity for AUC(0-t), AUC(0-inf), and Cmax is also explored by a linear model. See, e.g., Gibaldi and Perrier, Pharmacokinetics, Second Ed., Marcel Dekker: New York, N.Y. (1982). Nominal sample collection times were used in calculations, except where actual sampling times fell outside the protocol-specified acceptable time ranges. The following parameters were estimated: • Cmax Maximum plasma concentration. • Tmax Time to maximum concentration. • Cmax and Tmax were reported directly from the concentration-time data. • AUC0-T Area under the plasma concentration-time curve from time […] to the last time point with measurable concentrations, estimated bylinear trapezoidal rule. • AUC0-00 Area under the plasma concentration-time curve extrapolated to infinity, calculated using the formula: AUC0-00=AUC0-1+C0/λ0 • Where Ct is the last measurable concentration in plasma and λz is the terminal phase elimination rate constant estimated using log-linear regression during the terminal elimination phase. The number of points used in λz calculation was determined by visual inspection of the data describing the terminal phase. At lest the last three time points with measurable values were used in λz calculation. […]

[3] = Plasma pharmacokinetics in cynomolgus monkeys; type: in vivo; settings: cynomolgus monkey, 3 mg/kg
Text: as §1
Dose proportionality following study medication is explored by analyzing natural log-transformed pharmacokinetic variables AUC(0-t), AUC(0-inf), and Cmax with a linear model including the natural log-transformed dose as covariates. […] The following parameters were estimated: • Cmax Maximum plasma concentration. • Tmax Time to maximum concentration. • Cmax and Tmax were reported directly from the concentration-time data. • AUC0-T Area under the plasma concentration-time curve from time […] to the last time point with measurable concentrations, estimated bylinear trapezoidal rule. • AUC0-00 Area under the plasma concentration-time curve extrapolated to infinity, calculated using the formula: AUC0-00=AUC0-1+C0/λ0 • Where Ct is the last measurable concentration in plasma and λz is the terminal phase elimination rate constant estimated using log-linear regression during the terminal elimination phase. […]

[4] = tested on: Beagles; assay: Acute dog study (toxicity and MTD, escalating oral doses); type: in vivo
[5] = as above; type: in vivo; settings: male, Beagle, in vivo; dog, oral gavage
[6] = Protein binding in rat plasma; type: in vitro ADME
Description: HY2901 was administered to rats, dogs, and cynomolgus monkeys at a dose of 3 mg/kg orally and intravenously. Plasma samples were collected from all species for pharmacokinetic analysis. […] HY2901 is 75% protein bound in rat plasma and 60% protein bound in human plasma.

[7] = target: T1, Orphenin (hr) (Homo sapiens, UniProt P41146); assay: Table 12 panel: Orphenin; settings: 1.0E−6, average N=2, read-out: percentage inhibition of specific binding
T1 construct: expressed in transfected cells
Text: (§2) The percentage inhibition (average; N=2) for these receptors is shown below in Table 12.
(§3) Values in Table 12 are expressed as percentage inhibition of specific binding, and these values represent the average of replicate tubes at each of the concentrations tested.

[8] = target: Endothelin, ET-A (h) (Homo sapiens, UniProt P25101); assay: Table 12 panel: Endothelin, ET-A; settings: 1.0E−6, average N=2, read-out: percentage inhibition of specific binding
Text: as §2, §3

[9] = tested on: Corticotropin Releasing Factor, Non-selective; assay: Table 12 panel: CRF; type: binding; settings: 1.0E−6, average N=2
Text: as §2, §3

[10] = tested on: T2, Adrenergic, Alpha 1, Non-selective; assay: Table 12 panel: Adrenergic, Alpha 1; type: binding; settings: Adrenergic, Alpha 1; 1.0E−6; average N=2
T2 construct: other: Adrenergic, Alpha 1; 1.0E−6; average N=2

[11] = tested on: Glutamate, AMPA Site; assay: Table 12 panel: Glutamate, AMPA; type: binding; settings: 1.0E−6, average N=2
Text: as §2, §3

[12] = target: Neurokinin, NK1 (Homo sapiens, UniProt P25103); assay: Table 12 panel: NK1; settings: 1.0E−6, average N=2, read-out: percentage inhibition of specific binding
Text: as §2, §3

[13] = tested on: Calcium Channel, Type L (Dihydropyridine Site); assay: Table 12 panel: Calcium Channel, Type L; type: binding; settings: 1.0E−6, average N=2
Text: as §2, §3

[14] = tested on: Sigma, Non-selective; assay: Table 12 panel: Sigma; type: binding; settings: 1.0E−6, average N=2
Text: as §2, §3

[15] = target: GABA A, BDZ, alpha 1 site (Homo sapiens, UniProt P14867+P18507); assay: Table 12 panel: GABA A, BDZ; settings: 1.0E−6, average N=2, read-out: percentage inhibition of specific binding
Text: as §2, §3

Chain of GABA A, BDZ, alpha 1 site (P14867 28-456): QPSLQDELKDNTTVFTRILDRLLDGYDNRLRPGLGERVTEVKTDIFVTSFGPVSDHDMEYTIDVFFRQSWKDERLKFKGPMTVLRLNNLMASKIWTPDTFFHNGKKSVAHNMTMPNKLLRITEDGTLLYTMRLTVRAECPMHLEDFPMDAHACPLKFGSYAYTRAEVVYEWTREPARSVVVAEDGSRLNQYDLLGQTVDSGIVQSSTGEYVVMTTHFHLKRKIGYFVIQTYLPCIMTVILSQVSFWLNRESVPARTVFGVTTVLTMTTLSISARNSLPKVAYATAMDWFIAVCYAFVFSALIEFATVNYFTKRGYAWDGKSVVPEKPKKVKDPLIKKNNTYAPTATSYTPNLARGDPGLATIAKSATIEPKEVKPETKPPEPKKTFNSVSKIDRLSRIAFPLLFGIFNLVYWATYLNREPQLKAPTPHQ
Chain of GABA A, BDZ, alpha 1 site (P18507 40-467 limits assumed): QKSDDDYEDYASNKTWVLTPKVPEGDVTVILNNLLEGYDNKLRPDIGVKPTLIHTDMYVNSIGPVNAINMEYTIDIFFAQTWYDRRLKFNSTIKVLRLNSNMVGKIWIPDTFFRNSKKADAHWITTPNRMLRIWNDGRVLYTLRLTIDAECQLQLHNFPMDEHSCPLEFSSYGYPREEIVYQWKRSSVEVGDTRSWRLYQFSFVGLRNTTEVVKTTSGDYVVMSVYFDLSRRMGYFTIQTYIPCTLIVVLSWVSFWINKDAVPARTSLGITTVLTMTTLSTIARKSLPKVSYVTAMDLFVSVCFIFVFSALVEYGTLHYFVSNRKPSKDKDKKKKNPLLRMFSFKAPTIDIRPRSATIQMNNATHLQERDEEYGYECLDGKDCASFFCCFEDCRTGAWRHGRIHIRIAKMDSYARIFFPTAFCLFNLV
Chain of GABA A, BDZ, alpha 1 site (P47870 25-512 partner limits assumed): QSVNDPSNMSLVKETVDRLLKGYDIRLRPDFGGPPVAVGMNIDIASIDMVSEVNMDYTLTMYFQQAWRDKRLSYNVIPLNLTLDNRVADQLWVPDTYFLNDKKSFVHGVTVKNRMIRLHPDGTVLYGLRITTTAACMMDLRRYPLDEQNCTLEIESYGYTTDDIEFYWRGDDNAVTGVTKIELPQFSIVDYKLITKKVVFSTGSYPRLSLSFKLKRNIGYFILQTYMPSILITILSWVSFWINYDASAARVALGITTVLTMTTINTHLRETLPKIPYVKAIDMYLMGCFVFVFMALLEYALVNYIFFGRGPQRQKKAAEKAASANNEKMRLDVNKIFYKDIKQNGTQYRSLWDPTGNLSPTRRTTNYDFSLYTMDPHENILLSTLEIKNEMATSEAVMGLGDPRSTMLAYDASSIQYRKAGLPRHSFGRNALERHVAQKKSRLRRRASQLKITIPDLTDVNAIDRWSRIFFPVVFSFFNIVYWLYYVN
Chain of Endothelin, ET-A (h) (P25101 21-427): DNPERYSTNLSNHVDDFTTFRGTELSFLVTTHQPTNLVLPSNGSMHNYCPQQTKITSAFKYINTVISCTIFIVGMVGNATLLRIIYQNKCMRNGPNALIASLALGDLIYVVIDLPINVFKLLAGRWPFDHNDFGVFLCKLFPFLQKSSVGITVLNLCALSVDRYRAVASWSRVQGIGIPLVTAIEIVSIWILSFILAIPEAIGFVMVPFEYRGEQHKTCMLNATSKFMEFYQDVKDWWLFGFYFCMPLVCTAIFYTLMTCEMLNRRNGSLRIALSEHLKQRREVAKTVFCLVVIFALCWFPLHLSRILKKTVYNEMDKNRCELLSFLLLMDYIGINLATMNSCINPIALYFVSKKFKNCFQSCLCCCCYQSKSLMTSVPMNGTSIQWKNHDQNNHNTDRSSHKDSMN
T1 sequence (P41146 whole entry): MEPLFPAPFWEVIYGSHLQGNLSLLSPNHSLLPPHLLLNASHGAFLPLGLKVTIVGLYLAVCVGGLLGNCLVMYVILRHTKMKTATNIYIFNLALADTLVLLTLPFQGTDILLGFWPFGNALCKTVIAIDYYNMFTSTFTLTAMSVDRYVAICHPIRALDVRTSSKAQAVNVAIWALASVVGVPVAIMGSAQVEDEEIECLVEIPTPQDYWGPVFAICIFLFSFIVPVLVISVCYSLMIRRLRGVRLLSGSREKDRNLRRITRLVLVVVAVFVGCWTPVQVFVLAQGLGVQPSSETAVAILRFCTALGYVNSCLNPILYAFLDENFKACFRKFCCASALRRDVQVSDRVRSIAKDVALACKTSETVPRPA
Chain of Neurokinin, NK1 (P25103 whole entry): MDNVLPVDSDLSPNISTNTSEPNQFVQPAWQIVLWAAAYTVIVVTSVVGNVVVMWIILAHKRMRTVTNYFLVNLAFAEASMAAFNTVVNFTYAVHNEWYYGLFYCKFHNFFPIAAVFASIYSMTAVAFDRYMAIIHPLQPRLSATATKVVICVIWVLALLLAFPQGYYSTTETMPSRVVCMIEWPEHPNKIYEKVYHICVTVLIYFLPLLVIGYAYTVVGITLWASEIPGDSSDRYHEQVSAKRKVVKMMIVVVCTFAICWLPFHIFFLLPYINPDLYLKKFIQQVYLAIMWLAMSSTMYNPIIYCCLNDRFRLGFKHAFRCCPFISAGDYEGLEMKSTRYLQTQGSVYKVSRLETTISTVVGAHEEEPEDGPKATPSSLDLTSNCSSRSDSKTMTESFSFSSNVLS

For `CC(C)(CN1CCC(=C2c3ccc(F)cc3COc3ccccc32)CC1)C(=O)O` [Compound 49a], the “Group mean (=sd) number pf abdominal spasms recorded in a 25-minute period” value ([1]; oral 3 mg/kg) was 31 ± 9.0, the “Number of abdominal spasms recorded in a 25-minute period, individual animal data” value (“Number of abdominal spasms recorded” below) ([1]; oral 3 mg/kg, listed as HY-2901, 3 mg/kg) was 42 and 17 and 26 and 29 and 31 and 39 and the “Group mean (=sd) number pf abdominal spasms recorded in a 25-minute period” value ([1]; oral 10 mg/kg) was 25 ± 16.4. For the same molecule, the “Number of abdominal spasms recorded” value ([1]; oral 10 mg/kg, listed as HY-2901, 10 mg/kg) was 57 and 23 and 20 and 24 and 19 and 9, the “Group mean (=sd) number pf abdominal spasms recorded in a 25-minute period” value ([1]; oral 30 mg/kg) was 17 ± 13.8 and the “Number of abdominal spasms recorded” value ([1]; oral 30 mg/kg, listed as HY-2901, 30 mg/kg) was 37 and 20 and 23 and 1 (2×) and 18. The half-life ([2]; plasma, rat, 3 mg/kg) was 66 min, the Tmax ([2]; plasma, rat, 3 mg/kg, after oral administration) was 15 min and the Peak plasma levels ([2]; rats, most efficacious dose of 3 mg/kg in the sleep assay) was “less than 1.5 mM”. For the same molecule, the half-life [3] was 264 min, the Tmax ([3]; after oral administration) was 1.5 h and the “clinical signs of toxicity” value ([4]; 25 mg/kg oral gavage) was “No clinical signs of toxicity”. For the same molecule, the blood pressure ([4]; 40 mg/kg) was “No significant changes”, the heart rates ([4]; 40 mg/kg) was “unaffected” and the “clinical signs of toxicity” value ([4]; 40 mg/kg on Day 5) was “body tremors, mild to moderate ataxia, excessive salivation and hypoactivity”. For the same molecule, the “clinical signs of toxicity” value ([4]; 50 mg/kg oral gavage) was “Body tremors, mild to severe ataxia, and hypoactivity”, the “clinical signs of toxicity” value ([4]; 75 mg/kg oral gavage) was “Tremors (entire body, hind limbs, and/or head), mild to moderate ataxia, hypoactivity” and the body weight ([4]; escalating doses 25-75 mg/kg, 40 mg/kg Day 5) was “minimal effect on body weight”. It also gave an MTD at 5 days [5] of 75 mg/kg and a protein bound [6] of 75%.

With `CC(CC(=O)O)N1CCC(=C2c3ccc(F)cc3COc3ccccc32)CC1` (centres unmarked) [Compound 37] the inhibition at 1 µM [7] was 3.53%, the inhibition at 1 µM [8] was 10.2% and the “percentage inhibition of specific binding” value (shortened to “percentage inhibition”) [9] was 4.31%. The “percentage inhibition” value [10] was 6.56%, the “percentage inhibition” value [11] was 3.59% and the inhibition at 1 µM [12] was 10.3%. The “percentage inhibition” value [13] was 5.82%, the “percentage inhibition” value [14] was 13.27% and the inhibition at 1 µM [15] was -7.13%.
